Results as given in patent US8394952B2 (Vertex Pharmaceuticals Incorporated, priority 2006, dated 2013).
pKi: −log10 of the molar value.

biological target: Plk1 (Homo sapiens, UniProt P53350); test: biochemical
Sequence (P53350 20-338): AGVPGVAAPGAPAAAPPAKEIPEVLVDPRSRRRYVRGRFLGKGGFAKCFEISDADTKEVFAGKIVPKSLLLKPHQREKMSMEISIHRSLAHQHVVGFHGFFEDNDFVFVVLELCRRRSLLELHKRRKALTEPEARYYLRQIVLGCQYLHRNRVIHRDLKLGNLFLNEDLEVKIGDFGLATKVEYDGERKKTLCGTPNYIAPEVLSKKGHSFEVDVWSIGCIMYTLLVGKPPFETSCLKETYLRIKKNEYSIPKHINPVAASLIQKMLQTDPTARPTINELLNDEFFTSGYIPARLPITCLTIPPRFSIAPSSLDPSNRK

pKi | Structure (SMILES)
> 8.00 | COc1cc(C(=O)NCC2CCOCC2)ccc1Nc1ncc2c(n1)N(C1CCCC1)CC(C)(C)C(=O)N2C [Compound I-195, 4-(9-cyclopentyl-5,7,7-trimethyl-6-oxo-6,7,8,9-tetrahydro-5H-pyrimido[4,5-b][1,4]diazepin-2-ylamino)-3-methoxy-N-((tetrahydrofuran-2H-pyran-4-yl)methyl)benzamide]
> 8.00 | COC[C@H](C)NC(=O)c1ccc(Nc2ncc3c(n2)N(C2CCCC2)CC(C)(C)C(=O)N3C)c(OC)c1 [Compound I-217, (S)-4-(9-cyclopentyl-5,7,7-trimethyl-6-oxo-6,7,8,9-tetrahydro-5H-pyrimido[4,5-b][1,4]diazepin-2-ylamino)-3-methoxy-N-(1-methoxypropan-2-yl)benzamide]
> 8.00 | COc1cc(C(=O)NN2CCCC2)ccc1Nc1ncc2c(n1)N(C1CCCC1)CC1(CC1)C(=O)N2C [Compound I-253, 4-(9′-cyclopentyl-5′-methyl-6′-oxo-5′,6′,8′,9′-tetrahydrospiro[cyclopropane-1,7′-pyrimido[4,5-b][1,4]diazepine]-2′-ylamino)-3-methoxy-N-(pyrrolidin-1-yl)benzamide]
> 8.00 | CNC(=O)c1ccc(Nc2ncc3c(n2)N(C2CCCC2)CC(C)(C)C(=O)N3C)cc1 [Compound I-80, 4-(9-cyclopentyl-6,7,8,9-tetrahydro-5,7,7-trimethyl-6-oxo-5H-pyrimido[4,5-b][1,4]diazepin-2-ylamino)-N-methylbenzamide]
7.00 to 8.00 | CNC(=O)c1ccc(Nc2ncc3c(n2)N(C(C)C)CC(C)(C)C(=O)N3C)c(OC)c1 [Compound I-35, 4-(6,7,8,9-tetrahydro-9-isopropyl-5,7,7-trimethyl-6-oxo-5H-pyrimido[4,5-b][1,4]diazepin-2-ylamino)-3-methoxy-N-methylbenzamide]
> 8.00 | COc1cc(C(=O)NC2CCOCC2)ccc1Nc1ncc2c(n1)N(C1CCCC1)CC1(CC1)C(=O)N2C [Compound I-177, 4-(9′-cyclopentyl-5′-methyl-6′-oxo-5′,6′,8′,9′-tetrahydrospiro[cyclopropane-1,7′-pyrimido[4,5-b][1,4]diazepine]-2′-ylamino)-3-methoxy-N-(tetrahydro-2H-pyran-4-yl)benzamide]
7.00 to 8.00 | CN1C(=O)C(C)(C)CN(C2CCCC2)c2nc(Nc3cccc(NC(=O)N4CCCCC4)c3)ncc21 [Compound I-164, N-(3-(9-cyclopentyl-6,7,8,9-tetrahydro-5,7,7-trimethyl-6-oxo-5H-pyrimido[4,5-b][1,4]diazepin-2-ylamino)phenyl)piperidine-1-carboxamide]
> 8.00 | COc1cc(C(=O)NCc2ccccn2)ccc1Nc1ncc2c(n1)N(C1CCCC1)CC(C)(C)C(=O)N2C [Compound I-255, 4-(9-cyclopentyl-5,7,7-trimethyl-6-oxo-6,7,8,9-tetrahydro-5H-pyrimido[4,5-b][1,4]diazepin-2-ylamino)-3-methoxy-N-(pyridin-2-ylmethyl)benzamide]
> 8.00 | COc1cc(C(=O)N[C@@H]2CC[C@@H](CO)C2)ccc1Nc1ncc2c(n1)N(C1CCCC1)CC(C)(C)C(=O)N2C [Compound I-260, 4-(9-cyclopentyl-5,7,7-trimethyl-6-oxo-6,7,8,9-tetrahydro-5H-pyrimido[4,5-b][1,4]diazepin-2-ylamino)-N-((1R,3R)-3-(hydroxymethyl)cyclopentyl)-3-methoxybenzamide]
> 8.00 | COc1cc(C(=O)NC(C)(C)C)ccc1Nc1ncc2c(n1)N(C1CCCC1)CC(C)(C)C(=O)N2C [Compound I-130, 4-(9-cyclopentyl-6,7,8,9-tetrahydro-5,7,7-trimethyl-6-oxo-5H-pyrimido[4,5-b][1,4]diazepin-2-ylamino)-N-tert-butyl-3-methoxybenzamide]
> 8.00 | CCN1CCC(NC(=O)c2ccc(Nc3ncc4c(n3)N(C3CCCC3)CC(C)(C)C(=O)N4C)c(OC)c2)CC1 [Compound I-72]
7.00 to 8.00 | Cc1cc(O)n(-c2ccc(Nc3ncc4c(n3)N(C3CCCC3)CC(C)(C)C(=O)N4C)cc2)n1 [Compound I-98, 2-(4-(5-hydroxy-3-methyl-1H-pyrazol-1-yl)phenylamino)-9-cyclopentyl-8,9-dihydro-5,7,7-trimethyl-5H-pyrimido[4,5-b][1,4]diazepin-6(7H)-one]
> 8.00 | COc1cc(C(=O)N2CC(OC)C2)ccc1Nc1ncc2c(n1)N(C1CCCC1)CC(C)(C)C(=O)N2C [Compound I-220, 9-cyclopentyl-2-(2-methoxy-4-(3-methoxyazetidine-1-carbonyl)phenylamino)-5,7,7-trimethyl-8,9-dihydro-5H-pyrimido[4,5-b][1,4]diazepin-6(7H)-one]
> 8.00 | COc1cc(C(=O)NC2CC(F)(F)C2)ccc1Nc1ncc2c(n1)N(C1CCCC1)CC(C)(C)C(=O)N2C [Compound I-166, 4-(9-cyclopentyl-6,7,8,9-tetrahydro-5,7,7-trimethyl-6-oxo-5H-pyrimido[4,5-b][1,4]diazepin-2-ylamino)-N-(3,3-difluorocyclobutyl)-3-methoxybenzamide]
7.00 to 8.00 | CN1C(=O)C(C)(C)CN(C2CCCC2)c2nc(Nc3ccc(NC(=O)C(F)(F)F)cc3)ncc21 [Compound I-78, N-(4-(9-cyclopentyl-6,7,8,9-tetrahydro-5,7,7-trimethyl-6-oxo-5H-pyrimido[4,5-b][1,4]diazepin-2-ylamino)phenyl)-2,2,2-trifluoroacetamide]
> 8.00 | COc1cc(C(=O)NC2CC2)ccc1Nc1ncc2c(n1)N(C1CCCC1)CC(C)(C)C(=O)N2C [Compound I-93, 4-(9-cyclopentyl-6,7,8,9-tetrahydro-5,7,7-trimethyl-6-oxo-5H-pyrimido[4,5-b][1,4]diazepin-2-ylamino)-N-cyclopropyl-3-methoxybenzamide]
> 8.00 | COc1cc(C(=O)NC2CCNCC2)ccc1Nc1ncc2c(n1)N(C1CCCC1)CC(C)(C)C(=O)N2C [Compound I-101]
7.00 to 8.00 | COc1cc(C(=O)NC2CCN(C)CC2)ccc1Nc1ncc2c(n1)N(C1CCCC1)[C@H](C)CC(=O)N2C [Compound I-65, 4-((R)-9-cyclopentyl-6,7,8,9-tetrahydro-5,8-dimethyl-6-oxo-5H-pyrimido[4,5-b][1,4]diazepin-2-ylamino)-3-methoxy-N-(1-methylpiperidin-4-yl)benzamide]
> 8.00 | COc1cc(C(=O)N[C@@H]2CCc3ccccc32)ccc1Nc1ncc2c(n1)N(C1CCCC1)CC(C)(C)C(=O)N2C [Compound I-209, (R)-4-(9-cyclopentyl-5,7,7-trimethyl-6-oxo-6,7,8,9-tetrahydro-5H-pyrimido[4,5-b][1,4]diazepin-2-ylamino)-N-(2,3-dihydro-1H-inden-1yl)-3-methoxy-benzamide]
7.00 to 8.00 | CN1C(=O)C(C)(C)CN(C2CCCC2)c2nc(Nc3cccc(C(=O)N4CC(F)(C5CC5)C4)c3)ncc21 [Compound I-152, 9-Cyclopentyl-2-[3-(3-cyclopropyl-3-fluoro-azetidine-1-carbonyl)-phenylamino]-5,7,7-trimethyl-5,7,8,9-tetrahydro-pyrimido[4,5-b][1,4]diazepin-6-one]
7.00 to 8.00 | COCCNC(=O)c1cccc(Nc2ncc3c(n2)N(C2CCCC2)CC(C)(C)C(=O)N3C)c1 [Compound I-144, 3-(9-Cyclopentyl-6,7,8,9-tetrahydro-5,7,7-trimethyl-6-oxo-5H-pyrimido[4,5-b][1,4]diazepin-2-ylamino)-N-(2-methoxyethyl)benzamide]
> 8.00 | COc1cc(C(=O)NC[C@H](C)O)ccc1Nc1ncc2c(n1)N(C1CCCC1)CC(C)(C)C(=O)N2C [Compound I-270, (S)-4-(9-cyclopentyl-5,7,7-trimethyl-6-oxo-6,7,8,9-tetrahydro-5H-pyrimido[4,5-b][1,4]diazepin-2-ylamino)-N-(2-hydroxypropyl)-3-methoxybenzamide]
> 8.00 | COc1cc(C(=O)NC2CCN(C(=O)OC(C)(C)C)CC2)ccc1Nc1ncc2c(n1)N(C1CCCC1)CC(C)(C)C(=O)N2C [Compound I-95]
7.00 to 8.00 | COc1cc(C(=O)NC2CCN(C)CC2)ccc1Nc1ncc2c(n1)N(C)CCC(=O)N2C [Compound I-14, 4-(6,7,8,9-tetrahydro-5,9-dimethyl-6-oxo-5H-pyrimido[4,5-b][1,4]diazepin-2-ylamino)-3-methoxy-N-(1-methylpiperidin-4-yl)benzamide]
> 8.00 | CNC(=O)c1ccc(Nc2ncc3c(n2)N(C2CCCC2)CCC(=O)N3C)c(OC)c1 [Compound I-9, 4-(9-cyclopentyl-6,7,8,9-tetrahydro-5-methyl-6-oxo-5H-pyrimido[4,5-b][1,4]diazepin-2-ylamino)-3-methoxy-N-methylbenzamide]
> 8.00 | COc1cc(C(=O)N[C@H]2CCN(CC3CC3)C2)ccc1Nc1ncc2c(n1)N(C1CCCC1)CC(C)(C)C(=O)N2C [Compound I-75, 4-(9-cyclopentyl-6,7,8,9-tetrahydro-5,7,7-trimethyl-6-oxo-5H-pyrimido[4,5-b][1,4]diazepin-2-ylamino)-N—((S)-1-(cyclopropylmethyl)pyrrolidin-3-yl)-3-methoxybenzamide]
> 8.00 | COc1cc(C(=O)NCC2CCCC2)ccc1Nc1ncc2c(n1)N(C1CCCC1)CC(C)(C)C(=O)N2C [Compound I-230, 4-(9-cyclopentyl-5,7,7-trimethyl-6-oxo-6,7,8,9-tetrahydro-5H-pyrimido[4,5-b][1,4]diazepin-2-ylamino)-N-(cyclopentylmethyl)-3-methoxybenzamide]
> 8.00 | COc1cc(C(=O)NC[C@@H]2CCCC[C@@H]2O)ccc1Nc1ncc2c(n1)N(C1CCCC1)CC(C)(C)C(=O)N2C [Compound I-216, 4-(9-cyclopentyl-5,7,7-trimethyl-6-oxo-6,7,8,9-tetrahydro-5H-pyrimido[4,5-b][1,4]diazepin-2-ylamino)-N-(((1S,2S)-2-hydroxycyclohexyl)methyl)-3-methoxybenzamide]
> 8.00 | COc1cc(C(=O)NC[C@@H]2CCCC[C@H]2O)ccc1Nc1ncc2c(n1)N(C1CCCC1)CC(C)(C)C(=O)N2C [Compound I-229, 4-(9-cyclopentyl-5,7,7-trimethyl-6-oxo-6,7,8,9-tetrahydro-5H-pyrimido[4,5-b][1,4]diazepin-2-ylamino)-N-(((1S,2R)-2-hydroxycyclohexyl)methyl)-3-methoxybenzamide]
